In patent US10053443B2, “2-phenylbenzofuran derivatives, method for preparing the same and use of the same for treating inflammatory disease” (KOREA RESEARCH INSTITUTE OF BIOSCIENCE AND BIOTECHNOLOGY, priority 2014, dated 2018):
Like-named read-outs stand apart in the source and are kept apart here.

What was measured:
[1] = test system: Nitrogen Oxide (NO) generation; experiment: Inhibition of nitrogen oxide (NO) generation in LPS-treated Raw 264.7 cells (Griess); format: cell-based, mouse; settings: Raw 264.7, LPS 500 ng/ml, 24 hours
Description: Raw 264.7 (ATCC TIB71) cells were inoculated in a 96-well plate containing the same medium as used in Experimental Example 1 at the density of 1×10^5 cells/well. The cells were cultured in 5% CO2 at 37° C. for 4 hours to attach the cells onto the plate. The cells were treated with each sample at different concentrations, followed by further culture for 1 hour. […] were treated thereto at the final concentration of 500 ng/ml, followed by further culture for 24 hours. 100 μl of the supernatant was taken and transferred in a new plate, which was mixed with Griess reagent (a mixture of 1% sulfanilamide, 0.1% N-[1-naphthyl]-ethylenediamine dihydrochloride, and 5% phosphoric acid), followed by reaction for 10 minutes. Then, OD540 was measured. NO generation was quantified by using the sodium nitrite standard curve prepared from […] dissolved in the same medium at different concentrations. Considering the NO generation of the inflammation induced macrophages as 100%, the NO generation inhibition rate was calculated and presented in Table 7.

[2] = test system: interleukin-6 (IL-6) generation; experiment: Inhibition of interleukin-6 (IL-6) generation in LPS-treated Raw 264.7 cells (ELISA); format: cell-based, mouse; settings: Raw 264.7, LPS treated, read-out: Grades of IC50 on IL-6 generation
Description: Raw 264.7 cells were distributed by the same manner as described in Experimental Example <2-1>, and IL-6 included in the supernatant treated with each sample at different concentrations was measured by enzyme-linked immunosorbent assay (IL-6 ELISA kit, BD Bioscience, San Diego, Calif.).
(§1) Particularly, 10-fold diluted supernatant was distributed in a 96-well plate on which IL-6 antibody was attached, followed by adhesion for 2 hours. The supernatant remaining after the adhesion was washed with a washing buffer. The detection antibody and HRP were adhered on the washed plate for 1 hour. The remaining antibody was washed. Color development was induced by using TMB substrate. The reaction was terminated with sulfuric acid solution. Then, OD450 was measured. IL-6 in the supernatant was quantified by using the standard curve made with the standard IL-6 included in the kit. IL-6 suppression rate was calculated by measuring the same concentration that could inhibit IL-6 generation up to 50% in the LPS treated group and the results are shown in Table 8.

[3] = test system: Tumor Necrosis Factor Alpha (TNF-alpha); experiment: Inhibition of TNF-alpha generation in LPS-treated Raw 264.7 cells (ELISA); format: cell-based; settings: Mus musculus, RAW264.7; Raw 264.7, LPS treated; read-out: Grades of IC50 on TNF-alpha generation
Description: Raw 264.7 cells were distributed by the same manner as described in Experimental Example <2-1>, which were treated with the samples selected due to their high NO and IL-6 suppressing effect at different concentrations. TNF-alpha included in the supernatant was measured by enzyme-linked immunosorbent assay (TNF-alpha ELISA kit, R&D Systems, MN, USA).
as §1, with “100-fold” for “10-fold”, “TNF-alpha” for “IL-6”, “9.” for “8.”

[4] = test system: Raw 264.7 (ATCC TIB71) cells; experiment: Evaluation of cell survival rate of macrophages (MTT); format: cell-based, mouse; settings: Raw 264.7, 10 μM, 24 hours
Description: Raw 264.7 (ATCC TIB71) cells, the mouse derived macrophages', were inoculated in a 96-well plate containing DMEM (Dulbecco's modified Eagle medium; Welgene, Korea) supplemented with 10% FBS (Fetal Bovine Serum), 2 mM glutamine, penicillin (100 unit/ml), and streptomycin (100 μg/ml) at the density of 1×10^4 cells/well. The cells were cultured in 5% CO2 at 37° C. for 4 hours to attach the cells onto the plate. Next, the cells were treated with each sample at different concentrations, followed by further culture for 24 hours. To investigate the cell survival rate, 5 mg/ml of MTT (3-(4,5-dimethylthiazol-2-yl)-2,5-diphenyltetrazoliumbromide, Amresco, OH, USA) was distributed thereto (10 μl/well), followed by culture for 4 hours. Then, the supernatant was eliminated. Formazan reduced from MTT by mitochondria was dissolved in 100 μl of DMSO and then OD570 was measured. 0.2% DMSO was used for the negative control.

Row | Compound | Grades of NO generation inhibition rate (%) [1] | IC50 ([2]; Mus musculus, RAW264.7) [µM] | IC50 [3] [µM] | Grades of cell survival rate (%, in 10 μM) [4] | IC50 [2] [µM]
1 | COc1ccc(-c2cc3cc(CCCO)cc(OC)c3o2)cc1OC [Example 1, 3-[2-(3,4-dimethoxyphenyl)-7-methoxybenzofuran-5-yl]propane-1-ol] | D (D: 5<D≤15) | 10 to 20 | 5 to 10 | A (A: 90<A≤100) | 
2 | COc1ccc(-c2cc3cc(CCCO)cc(OC)c3o2)c(C)c1 [Example 2, 3-(7-methoxy-2-(4-methoxy-2-methylphenyl)benzofuran-5-yl)propane-1-ol] | A (A: 35<A≤100) | ≤ 10 | 3 to 5 | A (A: 90<A≤100) | 
3 | COc1cc(CCCO)cc2cc(-c3cccc(C)c3)oc12 [Example 3, 3-(7-methoxy-2-m-tolylbenzofuran-5-yl)propane-1-ol] | A (A: 35<A≤100) | 40 to 50 |  | A (A: 90<A≤100) | 
4 | COc1cccc(-c2cc3cc(CCCO)cc(OC)c3o2)c1 [Example 5, 3-(7-methoxy-2-(3-methoxyphenyl)benzofuran-5-yl)propane-1-ol] | C (C: 15<C≤25) | 40 to 50 |  | A (A: 90<A≤100) | 
5 | COc1cc(CCCO)cc2cc(-c3cc(F)cc(F)c3)oc12 [Example 6, 3-[2-(3,5-difluorophenyl)-7-methoxybenzofuran-5-yl]propane-1-ol] | B (B: 25<B≤35) | 10 to 20 | 15 to 17 | A (A: 90<A≤100) | 
6 | COc1ccc(-c2cc3cc(CCCO)cc(OC)c3o2)cc1 [Example 7, 3-(7-methoxy-2-(4-methoxyphenyl)benzofuran-5-yl)propane-1-ol] | D (D: 5<D≤15) | 40 to 50 |  | A (A: 90<A≤100) | 
7 | COc1cc(CCCO)cc2cc(-c3cccc(F)c3)oc12 [Example 8, 3-(2-(3-fluorophenyl)-7-methoxybenzofuran-5-yl)propane-1-ol] | C (C: 15<C≤25) | 40 to 50 |  | A (A: 90<A≤100) | 
8 | COc1cc(CCCO)cc2cc(-c3ccc(N(C)C)cc3)oc12 [Example 9, 3-(2-(4-(dimethylamino)phenyl)-7-methoxybenzofuran-5-yl)propane-1-ol] | C (C: 15<C≤25) | 40 to 50 |  | A (A: 90<A≤100) | 
9 | COc1ccc(CCc2cc(CCCO)cc(OC)c2O)cc1OC [Example 14, 2-(3,4-dimethoxyphenethyl)-4-(3-hydroxypropyl)-6-methoxyphenol] | C (C: 15<C≤25) |  |  | C (C: 70<C≤80) | 
10 | COc1cc(CCCO)cc(CCc2ccc(C)cc2)c1O [Example 16, 4-(3-hydroxypropyl)-2-methoxy-6-(4-methylpenethyl)phenol] | C (C: 15<C≤25) |  |  | A (A: 90<A≤100) | 30 to 40
11 | COc1cccc(CCc2cc(CCCO)cc(OC)c2O)c1 [Example 17, 4-(3-hydroxypropyl)-2-methoxy-6-(3-methoxypenethyl)phenol] | C (C: 15<C≤25) |  |  | B (B: 80<B≤90) | 40 to 50
12 | COc1ccc(-c2cc3cc(CO)cc(OC)c3o2)cc1OC [Example 18, [2-(3,4-dimethoxyphenyl)-7-methoxybenzofuran-5-yl]methanol] | C (C: 15<C≤25) | 40 to 50 |  | A (A: 90<A≤100) | 
13 | COc1ccc(-c2cc3cc(CCO)cc(OC)c3o2)cc1OC [Example 20, 2-[2-(3,4-dimethoxyphenyl)-7-methoxybenzofuran-5-yl]ethanol] | A (A: 35<A≤100) | 20 to 30 |  | B (B: 80<B≤90) | 
14 | COc1cc(-c2cc3cc(CCCO)cc(OC)c3o2)ccc1O [Example 22, 4-(5-(3-hydroxypropyl)-7-methoxybenzofuran-2-yl)-2-methoxyphenol] | A (A: 35<A≤100) | ≤ 10 | 3 to 5 | A (A: 90<A≤100) | 
15 | COc1ccc(-c2cc3cc(CCCO)cc(OC)c3o2)cc1O [Example 23, 5-(5-(3-hydroxypropyl)-7-methoxybenzofuran-2-yl)-2-methoxyphenol] | C (C: 15<C≤25) | 40 to 50 |  | B (B: 80<B≤90) | 
16 | COc1cc(CCCO)cc2cc(-c3cc(O)cc(O)c3)oc12 [Example 24, 5-(5-(3-hydroxypropyl)-7-methoxybenzofuran-2-yl)benzene-1,3-diol] | A (A: 35<A≤100) | 10 to 20 | 5 to 10 | A (A: 90<A≤100) | 
17 | COc1cc(-c2cc3cc(CCCO)cc(OC)c3o2)cc(OC)c1O [Example 26, 4-(5-(3-hydroxypropyl)-7-methoxybenzofuran-2-yl)-2,6-dimethoxyphenol] | A (A: 35<A≤100) | ≤ 10 | 1 to 3 | A (A: 90<A≤100) | 
18 | COc1ccc(-c2cc3cc(CCCO)cc(O)c3o2)cc1OC [Example 27, 2-(3,4-dimethoxyphenyl)-5-(3-hydroxypropyl)benzofuran-7-ol] | D (D: 5<D≤15) | 20 to 30 |  | B (B: 80<B≤90) | 
19 | COc1ccc(-c2cc3cc(CCCOC(C)=O)cc(OC)c3o2)cc1OC [Example 28, 3-(2-(3,4-dimethoxyphenyl)-7-methoxybenzofuran-5-yl)propyl acetate] | B (B: 25<B≤35) | 20 to 30 | 1 to 3 | A (A: 90<A≤100) | 
